# Read-outs that look alike come from different tables or passages of the source.
# How the values were obtained:
# Format in all cases: cell-based
# [1] = system: Acinetobacter baumanii/haemolyticus: Multidrug-resistant clinical isolate (AB-3167); test: MIC determination (CLSI), AB-3167; details: for MIC: Acinetobacter baumannii
# Method: (§1) The in vitro antibacterial activity of compounds described in the Examples was evaluated by minimum inhibitory concentration (MIC) testing according to Clinical and Laboratory Standards Institute (CLSI, formerly NCCLS) guidelines. See: Clinical and Laboratory Standards Institute. Methods for Dilution Antimicrobial Susceptibility Tests for Bacteria that Grow Aerobically; Approved Standard-Seventh Edition. CLSI document M7-A7 [ISBN 1-56238-587-9]. Clinical and Laboratory Standards Institute, 940 West Valley Road, Suite 1400, Wayne, Pa. 19087-1898 USA, 2006; also Clinical and Laboratory Standards Institute. Performance Standards for Antimicrobial Susceptibility Testing; Eighteenth Informational Supplement. CLSI document M100-S18 [ISBN1-56238-653-0]. Clinical and Laboratory Standards Institute.
# (§2) The following bacterial strains were used in these MIC determinations:
# 2) Acinetobacter baumanii/haemolyticus: Multidrug-resistant clinical isolate labeled as AB-3167 in Tables 1, 2 and 3;
# [2] = system: Escherichia coli EC-1: VOGEL, mouse virulent; test: MIC determination (CLSI), EC-1; details: for MIC: Escherichia coli
# Method: as §1, §2
# 3) Escherichia coli EC-1: VOGEL, mouse virulent labeled as EC-1 in Tables 1, 2 and 3;
# [3] = system: Klebsiella pneumoniae: Ciprofloxacin-resistant isolate, ESBL, clinical isolate (KP-3700); test: MIC determination (CLSI), KP-3700
# Method: as §1, §2
# 4) Klebsiella pneumoniae: Ciprofloxacin-resistant isolate, expresses extended-spectrum beta-lactamases (ESBL), clinical isolate, labeled as KP-3700 in Tables 1, 2, and 3.
# [4] = system: Pseudomonas aeruginosa UI-18: Wild-type (PA-7); test: MIC determination (CLSI), PA-7; details: for MIC: Pseudomonas aeruginosa
# Method: as §1, §2
# 1) Pseudomonas aeruginosa UI-18: Wild-type, labeled as PA-7 in Tables 1, 2 and 3;
# [5] = Acinetobacter baumanii/haemolyticus multidrug-resistant clinical isolate AB-3167
# [6] = Escherichia coli EC-1 VOGEL, mouse virulent
# [7] = Pseudomonas aeruginosa UI-18 wild-type PA-7
# [8] = Acinetobacter baumanii/haemolyticus AB-3167
# [9] = Pseudomonas aeruginosa UI-18 (PA-7)
# [10] = Table 1, MIC, read-out: AB-3167 (MIC)
# [11] = Table 1, MIC, read-out: PA-7 (MIC)
SMILES,"AB-3167 MIC [1, 5]","EC-1 MIC [2, 6]",KP-3700 MIC [3],"PA-7 MIC [4, 7] [µg/mL]",also measured
CC(CCc1ccc(-c2ccc(C#N)s2)cc1)(C(=O)NO)S(C)(=O)=O (racemic) [Example 82],8 µg/mL,0.5 µg/mL,2 µg/mL,0.5,–
COc1ncccc1-c1ccc(CCC(C)(C(=O)NO)S(C)(=O)=O)cc1 (racemic) [Example 76],≧64 mg/L,32 µg/mL,≧64 mg/L,16,–
Cc1nc(-c2ccc(CCC(C)(C(=O)NO)S(C)(=O)=O)cc2)ccc1C#N (stereo not shown) [Example 131],≧64 mg/L,4 µg/mL,16 µg/mL,4,–
CC(CCc1ccc(-c2c(F)cccc2F)cc1)(C(=O)NO)S(C)(=O)=O (racemic) [Example 54],16 µg/mL,4 µg/mL,16 µg/mL,1,–
COc1ccccc1-c1ccc(CCC(C)(C(=O)NO)S(C)(=O)=O)cc1 (stereo not shown) [Example 100],≧64 mg/L,32 µg/mL,≧64 mg/L,8,–
"Cc1ccc(COc2ccc(CCC(C)(C(=O)NO)S(C)(=O)=O)cc2)cc1 (stereo not shown) [Example 263, N-hydroxy-2-methyl-4-{4-[(4-methylbenzyl)oxy]phenyl}-2-(methylsulfonyl)butanamide]",–,–,8 µg/mL,–,"MIC ([1]; Table 3, read-out: AB-3167 MIC): 16 µg/mL; MIC ([2]; read-out: EC-1 MIC): 2 µg/mL; MIC ([4]; Table 3, read-out: PA-7 MIC): 4 µg/mL"
CC(CCc1ccc(-c2ccc(C[C@@H](N)C(=O)O)cc2)cc1)(C(=O)NO)S(C)(=O)=O (stereo partly shown) [Example 232],–,–,≧64 mg/L,–,"AB-3167 MIC [1, 8]: ≧64 mg/L; EC-1 MIC ([2]; Escherichia coli EC-1): ≧64 mg/L; PA-7 MIC [4, 9]: 32 µg/mL"
"CC(CCc1ccc(OCCCc2ccccc2)cc1)(C(=O)NO)S(C)(=O)=O (stereo not shown) [Example 264, N-hydroxy-2-methyl-2-(methylsulfonyl)-4-[4-(3-phenylpropoxy)phenyl]butanamide]",–,–,16 µg/mL,–,"MIC ([1]; Table 3, read-out: AB-3167 MIC): 8 µg/mL; MIC ([2]; read-out: EC-1 MIC): 4 µg/mL; MIC ([4]; Table 3, read-out: PA-7 MIC): 32 µg/mL"
COc1cccc(-c2ccc(CCC(C)(C(=O)NO)S(C)(=O)=O)cc2)c1F (racemic) [Example 89],16 µg/mL,0.5 µg/mL,1 µg/mL,0.5,–
"CCC(c1ccccc1)c1noc(COc2ccc(CCC(C)(C(=O)NO)S(C)(=O)=O)cc2)n1 (stereo not shown) [Example 240, N-hydroxy-2-methyl-2-(methylsulfonyl)-4-(4-{[3-(1-phenylpropyl)-1,2,4-oxadiazol-5-yl]methoxy}phenyl)butanamide]",–,–,≧64 mg/L,–,"MIC ([1]; Table 3, read-out: AB-3167 MIC): ≥ 64 µg/mL; MIC ([2]; read-out: EC-1 MIC): 32 µg/mL; MIC ([4]; Table 3, read-out: PA-7 MIC): ≥ 64 µg/mL"
COc1ccc(-c2ccc(CCC(C)(C(=O)NO)S(C)(=O)=O)cc2)c(C)c1 (racemic) [Example 60],≧64 mg/L,4 µg/mL,16 µg/mL,4,–
Cc1cc(OCCO)ccc1-c1ccc(CCC(C)(C(=O)NO)S(C)(=O)=O)cc1 (stereo not shown) [Example 151],≧64 mg/L,8 µg/mL,32 µg/mL,4,–
CC(CCc1ccc(-c2ccc(F)cc2)nc1)(C(=O)NO)S(C)(=O)=O (stereo not shown) [Example 119],≧64 mg/L,16 µg/mL,≧64 mg/L,8,–
"CS(=O)(=O)C(CCc1ccc(-c2ccc(F)cc2)cc1)C(=O)NO (stereo not shown) [Example 24, 4-(4′-Fluorobiphenyl-4-yl)-N-hydroxy-2-(methylsulfonyl)butanamide]",–,–,32 µg/mL,–,"MIC [1, 10]: 32 µg/mL; MIC ([2]; read-out: EC-1: (MIC)): 32 µg/mL; MIC [4, 11]: 1 µg/mL"
C[C@@](CCc1ccc(-c2cc3ccccc3o2)cc1)(C(=O)NO)S(C)(=O)=O [Example 214],–,–,4 µg/mL,–,"AB-3167 MIC [1, 8]: 8 µg/mL; EC-1 MIC ([2]; Escherichia coli EC-1): 0.125 µg/mL; PA-7 MIC [4, 9]: 8 µg/mL"
CC(CCc1ccc(-c2ccc(C#N)nc2)cc1)(C(=O)NO)S(C)(=O)=O (stereo not shown) [Example 93],≧64 mg/L,16 µg/mL,32 µg/mL,4,–
"CC(CCc1ccc(OC2CCCCC2)cc1)(C(=O)NO)S(C)(=O)=O (stereo not shown) [Example 238, 4-[4-(cyclohexyloxy)phenyl]-N-hydroxy-2-methyl-2-(methylsulfonyl)butanamide]",–,–,≧64 mg/L,–,"MIC ([1]; Table 3, read-out: AB-3167 MIC): 32 µg/mL; MIC ([2]; read-out: EC-1 MIC): 32 µg/mL; MIC ([4]; Table 3, read-out: PA-7 MIC): 8 µg/mL"

SMILES,"AB-3167 MIC [1, 5]","EC-1 MIC [2, 6]",KP-3700 MIC [3],"PA-7 MIC [4, 7] [µg/mL]",also measured
COc1ccc(-c2ccc(CCC(C)(C(=O)NO)S(C)(=O)=O)cc2)c(C)n1 (racemic) [Example 86],≧64 mg/L,8 µg/mL,32 µg/mL,4,–
Cn1ccnc1-c1ccc(-c2ccc(CCC(C)(C(=O)NO)S(C)(=O)=O)cc2)cc1 (stereo not shown) [Example 92],≧64 mg/L,16 µg/mL,32 µg/mL,32,–
CC(CCc1ccc(-c2ccc(F)cc2)cn1)(C(=O)NO)S(C)(=O)=O (stereo not shown) [Example 164],≧64 mg/L,32 µg/mL,32 µg/mL,4,–
CC(C)Oc1ccc(-c2ccc(CCC(C)(C(=O)NO)S(C)(=O)=O)cc2)cc1 (racemic) [Example 49],8 µg/mL,2 µg/mL,4 µg/mL,4,–
CSc1ccc(-c2ccc(CCC(C)(C(=O)NO)S(C)(=O)=O)cn2)cc1 (stereo not shown) [Example 121],≧64 mg/L,1 µg/mL,4 µg/mL,4,–
CC(C)(O)c1ccccc1-c1ccc(CCC(C)(C(=O)NO)S(C)(=O)=O)cc1 (stereo not shown) [Example 153],≧64 mg/L,≧64 mg/L,≧64 mg/L,32,–
"CC(CCc1ccc(-c2ccccc2)nc1)(C(=O)NO)S(C)(=O)=O (stereo not shown) [Example 3, N-Hydroxy-2-methyl-2-(methylsulfonyl)-4-(6-phenylpyridin-3-yl)butanamide]",–,–,≧64 mg/L,–,"MIC [1, 10]: ≥ 64 µg/mL; MIC ([2]; read-out: EC-1: (MIC)): 16 µg/mL; MIC [4, 11]: 16 µg/mL"
CC(CCc1ccc(-c2cc(C(F)(F)F)c(C#N)cn2)cc1)(C(=O)NO)S(C)(=O)=O (stereo not shown) [Example 124],≧64 mg/L,8 µg/mL,≧64 mg/L,8,–
CC(CCc1ccc(-c2ccc(Cl)cc2Cl)cc1)(C(=O)NO)S(C)(=O)=O (racemic) [Example 70],32 µg/mL,1 µg/mL,2 µg/mL,1,–
CC(CCc1ccc(-c2ccc(S(C)(=O)=O)cc2)cc1)(C(=O)NO)S(C)(=O)=O (racemic) [Example 79],≧64 mg/L,32 µg/mL,≧64 mg/L,4,–
"CC(CCc1ccc(OCC2CCC2)cc1)(C(=O)NO)S(C)(=O)=O (stereo not shown) [Example 266, 4-[4-(cyclobutylmethoxy)phenyl]-N-hydroxy-2-methyl-2-(methylsulfonyl)butanamide]",–,–,≧64 mg/L,–,"MIC ([1]; Table 3, read-out: AB-3167 MIC): 32 µg/mL; MIC ([2]; read-out: EC-1 MIC): 32 µg/mL; MIC ([4]; Table 3, read-out: PA-7 MIC): 16 µg/mL"
CC(CCc1ccc(-c2ccc(OCCO)c(F)c2)cc1)(C(=O)NO)S(C)(=O)=O (stereo not shown) [Example 145],≧64 mg/L,2 µg/mL,4 µg/mL,1,–
"CC(CCc1ccc(OCCC2CCCCC2)cc1)(C(=O)NO)S(C)(=O)=O (stereo not shown) [Example 314, 4-[4-(2-cyclohexylethoxy)phenyl]-N-hydroxy-2-methyl-2-(methylsulfonyl)butanamide]",–,–,≧64 mg/L,–,"MIC ([1]; Table 3, read-out: AB-3167 MIC): 2 µg/mL; MIC ([2]; read-out: EC-1 MIC): 16 µg/mL; MIC ([4]; Table 3, read-out: PA-7 MIC): 16 µg/mL"
CC(CCc1ccc(-c2ccc(C#N)cc2)nc1)(C(=O)NO)S(C)(=O)=O (stereo not shown) [Example 122],≧64 mg/L,16 µg/mL,≧64 mg/L,8,–
COc1ccc(-c2ccc(CCC(C)(C(=O)NO)S(C)(=O)=O)cn2)cc1 (stereo not shown) [Example 120],≧64 mg/L,4 µg/mL,16 µg/mL,8,–
CC(CCc1ccc(-c2ccc(OCCO)cc2F)cc1)(C(=O)NO)S(C)(=O)=O (stereo not shown) [Example 144],≧64 mg/L,1 µg/mL,4 µg/mL,1,–
"CC(CCc1ccc(OCCc2ccncc2)cc1)(C(=O)NO)S(C)(=O)=O (stereo not shown) [Example 311, N-hydroxy-2-methyl-2-(methylsulfonyl)-4-[4-(2-pyridin-4-ylethoxy)phenyl]butanamide]",–,–,≧64 mg/L,–,"MIC ([1]; Table 3, read-out: AB-3167 MIC): ≥ 64 µg/mL; MIC ([2]; read-out: EC-1 MIC): ≥ 64 µg/mL; MIC ([4]; Table 3, read-out: PA-7 MIC): 32 µg/mL"

# — patent publication US8853258B2, “C-linked hydroxamic acid derivatives useful as antibacterial agents” (Pfizer Inc., priority 2009, dated 2014)
